# Test system: HCV 1b_Huh-Luc/Neo-ET cell line (genotype 1b replicon in Huh 7 cells)
# Test: HCV replicon assay (luciferase readout)
# Assay type: cell-based
# Conditions: Hepatitis C virus, HCV 1b replicon in Huh 7 cells, 72 h incubation, EC50 range class, read-out: Inhibition of HCV genotype 1b
# Description: Biological activity of the compounds of the invention was determined using an HCV replicon assay. The HCV 1b_Huh-Luc/Neo-ET cell line persistently expressing a bicistronic genotype 1b replicon in Huh 7 cells was obtained from ReBLikon GMBH. This cell line was used to test compound inhibition using luciferase enzyme activity readout as a measurement of compound inhibition of replicon levels.
# On Day 1 (the day after plating cells), each compound is added in triplicate to the cells. Plates are incubated for 72 h prior to determining luciferase levels. Enzyme activity was measured using a Bright-Glo Kit (cat. number E2620) manufactured by Promega Corporation. The following equation was used to generate a percent control value for each compound. % Control=(Compound Luciferase Level/Control Luciferase Level)*100
# The EC50 value was determined using GraphPad Prism and the following equation: Y=Bottom asymptote+(Top asymptote-Bottom asymptote)/(1+10^((Log EC50−X)*HillSlope))
# EC50 values of compounds are determined several times in the replicon assay to generate average EC50 values. […]
row,Structure (SMILES),EC50 [nM]
1,COC(=O)N[C@H](C(=O)N1CCC[C@H]1c1ncc(-c2ccc3c(c2)Oc2ccc(-c4cnc([C@@H]5CCCN5C(=O)[C@@H](NC(=O)OC)[C@@H](C)OC)[nH]4)cc2C3(C)C)[nH]1)[C@@H](C)OC [Compound 71],< 1
2,COC(=O)N[C@H](C(=O)N1CCC[C@H]1c1ncc(-c2ccc3c(c2)Oc2ccc(-c4cnc([C@@H]5CCCN5C(=O)[C@@H](NC(=O)OC)C5CCOCC5)[nH]4)cc2C3(C)C)[nH]1)C1CCOCC1 [Compound 75],< 1
3,CC[C@H](C)[C@H](NC(=O)OC)C(=O)N1CCC[C@H]1c1ncc(-c2ccc3c(c2)Oc2ccc(-c4cnc([C@@H]5CCCN5C(=O)[C@@H](NC(=O)OC)[C@@H](C)CC)[nH]4)cc2C32CC2)[nH]1 [Compound 79],< 1
4,COC(=O)N[C@H](C(=O)N1CCC[C@H]1c1ncc(-c2ccc3c(=O)c4cc(-c5cnc([C@@H]6CSCN6C(=O)[C@@H](NC(=O)OC)[C@@H](C)OC)[nH]5)ccc4oc3c2)[nH]1)[C@@H](C)OC [Compound 120],< 1
5,COC(=O)N[C@@H](C(=O)N1CCC[C@H]1c1ncc(-c2ccc3c(=O)c4cc(-c5cnc([C@@H]6CSCN6C(=O)[C@H](NC(=O)OC)c6ccccc6)[nH]5)ccc4oc3c2)[nH]1)c1ccccc1 [Compound 121],< 1
6,COC(=O)N[C@H](C(=O)N1CCC[C@H]1c1ncc(-c2ccc3c(=O)c4cc(-c5cnc([C@@H]6CSCN6C(=O)[C@@H](NC(=O)OC)C(C)C)[nH]5)ccc4oc3c2)[nH]1)C(C)C [Compound 122],< 1
7,CC[C@H](C)[C@H](NC(=O)OC)C(=O)N1CCC[C@H]1c1ncc(-c2ccc3c(=O)c4cc(-c5cnc([C@@H]6CSCN6C(=O)[C@@H](NC(=O)OC)[C@@H](C)CC)[nH]5)ccc4oc3c2)[nH]1 [Compound 123],< 1
8,COC(=O)N[C@H](C(=O)N1CCC[C@H]1c1ncc(-c2ccc3c(c2)Oc2ccc(-c4cnc([C@@H]5CSCN5C(=O)[C@@H](NC(=O)OC)C(C)C)[nH]4)cc2C3)[nH]1)C(C)C [Compound 124],< 1
9,CC[C@H](C)[C@H](NC(=O)OC)C(=O)N1CCC[C@H]1c1ncc(-c2ccc3c(c2)Oc2ccc(-c4cnc([C@@H]5CSCN5C(=O)[C@@H](NC(=O)OC)[C@@H](C)CC)[nH]4)cc2C3)[nH]1 [Compound 125],< 1
10,COC(=O)N[C@H](C(=O)N1CCC[C@H]1c1ncc(-c2ccc3oc4cc(-c5cnc([C@@H]6CCCN6C(=O)[C@@H](NC(=O)OC)C(C)C)[nH]5)c(C)cc4c(=O)c3c2)[nH]1)C(C)C [Compound 126],< 1
11,COC(=O)N[C@@H](C(=O)N1CCC[C@H]1c1ncc(-c2ccc3oc4cc(-c5cnc([C@@H]6CCCN6C(=O)[C@H](NC(=O)OC)c6ccccc6)[nH]5)c(C)cc4c(=O)c3c2)[nH]1)c1ccccc1 [Compound 127],< 1
12,COC(=O)N[C@H](C(=O)N1CSC[C@H]1c1ncc(-c2ccc3c(=O)c4cc(-c5cnc([C@@H]6CSCN6C(=O)[C@@H](NC(=O)OC)C(C)C)[nH]5)ccc4oc3c2)[nH]1)C(C)C [Compound 128],< 1
13,COC(=O)N[C@@H](C(=O)N1CSC[C@H]1c1ncc(-c2ccc3c(=O)c4cc(-c5cnc([C@@H]6CSCN6C(=O)[C@H](NC(=O)OC)c6ccccc6)[nH]5)ccc4oc3c2)[nH]1)c1ccccc1 [Compound 129],< 1
14,CC[C@H](C)[C@H](NC(=O)OC)C(=O)N1CCC[C@H]1c1ncc(-c2ccc3c(=O)c4cc(-c5cnc([C@@H]6COCCN6C(=O)[C@@H](NC(=O)OC)[C@@H](C)CC)[nH]5)ccc4oc3c2)[nH]1 [Compound 130],< 1
15,COC(=O)N[C@H](C(=O)N1CCC[C@H]1c1ncc(-c2ccc3c(=O)c4cc(-c5cnc([C@@H]6COCCN6C(=O)[C@@H](NC(=O)OC)[C@@H](C)OC)[nH]5)ccc4oc3c2)[nH]1)[C@@H](C)OC [Compound 131],< 1
16,CC[C@H](C)[C@H](NC(=O)OC)C(=O)N1CCCC[C@H]1c1ncc(-c2ccc3oc4cc(-c5cnc([C@@H]6CCCN6C(=O)[C@@H](NC(=O)OC)[C@@H](C)CC)[nH]5)ccc4c(=O)c3c2)[nH]1 [Compound 132],< 1
17,COC(=O)N[C@H](C(=O)N1CCC[C@H]1c1ncc(-c2ccc3c(c2)C(C)(C)c2ccc(-c4ccc5nc([C@@H]6CCCN6C(=O)[C@@H](NC(=O)OC)C(C)C)[nH]c5c4)cc2O3)[nH]1)C(C)C [Compound 133],< 1
18,COC(=O)N[C@@H](C(=O)N1CCC[C@H]1c1ncc(-c2ccc3c(c2)C(C)(C)c2ccc(-c4ccc5nc([C@@H]6CCCN6C(=O)[C@H](NC(=O)OC)c6ccccc6)[nH]c5c4)cc2O3)[nH]1)c1ccccc1 [Compound 134],< 1
19,COC(=O)N[C@H](C(=O)N1CCC[C@H]1c1nc2ccc(-c3ccc4c(=O)c5cc(-c6cnc([C@@H]7CCCN7C(=O)[C@@H](NC(=O)OC)[C@@H](C)OC)[nH]6)ccc5oc4c3)cc2[nH]1)C(C)C [Compound 135],< 1

row,Structure (SMILES),EC50 [nM]
1,CC[C@H](C)[C@H](NC(=O)OC)C(=O)N1CCC[C@H]1c1ncc(-c2ccc3oc4cc(-c5ccc6nc([C@@H]7CCCN7C(=O)[C@@H](NC(=O)OC)C(C)C)[nH]c6c5)ccc4c(=O)c3c2)[nH]1 [Compound 136],< 1
2,COC(=O)N[C@H](C(=O)N1CCC[C@H]1c1nc2ccc(-c3ccc4c(=O)c5cc(-c6cnc([C@@H]7CCCN7C(=O)[C@H](NC(=O)OC)c7ccccc7)[nH]6)ccc5oc4c3)cc2[nH]1)C(C)C [Compound 137],< 1
3,CC[C@H](C)[C@H](NC(=O)OC)C(=O)N1CCC[C@H]1c1ncc(-c2ccc3c(=O)c4cc(-c5cnc([C@@H]6CCCN6C(=O)[C@@H](NC(=O)OC)[C@@H](C)CC)[nH]5)ccc4oc3c2)[nH]1 [Compound 138],< 1
4,COC(=O)N[C@H](C(=O)N1CCC[C@H]1c1ncc(-c2ccc3c(=O)c4cc(-c5cnc([C@@H]6CCCN6C(=O)[C@@H](NC(=O)OC)C6CCCC6)[nH]5)ccc4oc3c2)[nH]1)C1CCCC1 [Compound 139],< 1
5,COC(=O)N[C@H](C(=O)N1CCCC[C@H]1c1ncc(-c2ccc3oc4cc(-c5cnc([C@@H]6CCCN6C(=O)[C@@H](NC(=O)OC)[C@@H](C)OC)[nH]5)ccc4c(=O)c3c2)[nH]1)[C@@H](C)OC [Compound 140],< 1
6,COC(=O)N[C@H](C(=O)N1CCCC[C@H]1c1ncc(-c2ccc3oc4cc(-c5cnc([C@@H]6CCCN6C(=O)[C@@H](NC(=O)OC)C(C)C)[nH]5)ccc4c(=O)c3c2)[nH]1)C(C)C [Compound 141],< 1
7,COC(=O)N[C@H](C(=O)N1CCC[C@H]1c1ncc(-c2ccc3c(=O)c4cc(-c5cnc([C@@H]6COCCN6C(=O)[C@@H](NC(=O)OC)C(C)C)[nH]5)ccc4oc3c2)[nH]1)C(C)C [Compound 142],< 1
8,CC[C@H](C)[C@H](NC(=O)OC)C(=O)N1CCC[C@H]1c1ncc(-c2ccc3c(c2)Oc2ccc(-c4cnc([C@@H]5COCCN5C(=O)[C@@H](NC(=O)OC)[C@@H](C)CC)[nH]4)cc2C3)[nH]1 [Compound 143],< 1
9,COC(=O)N[C@H](C(=O)N1CCC[C@H]1c1ncc(-c2ccc3c(c2)Oc2ccc(-c4cnc([C@@H]5COCCN5C(=O)[C@@H](NC(=O)OC)C(C)C)[nH]4)cc2C3)[nH]1)C(C)C [Compound 144],< 1
10,CC[C@H](C)[C@H](NC(=O)OC)C(=O)N1CCC[C@H]1c1ncc(-c2ccc3oc4cc(-c5ccc6nc([C@@H]7CCCN7C(=O)[C@@H](NC(=O)OC)[C@@H](C)OC)[nH]c6c5)ccc4c(=O)c3c2)[nH]1 [Compound 145],< 1
11,COC(=O)N[C@H](C(=O)N1CCC[C@H]1c1ncc(-c2ccc3c(c2)C(C)(C)c2ccc(-c4ccc5nc([C@@H]6CCCN6C(=O)[C@@H](NC(=O)OC)[C@@H](C)OC)[nH]c5c4)cc2O3)[nH]1)[C@@H](C)OC [Compound 146],< 1
12,[2H]C([2H])([2H])C([2H])(C([2H])([2H])[2H])[C@]([2H])(NC(=O)OC)C(=O)N1CCC[C@H]1c1ncc(-c2ccc3c(c2)C(C)(C)c2ccc(-c4ccc5nc([C@@H]6CCCN6C(=O)[C@@]([2H])(NC(=O)OC)C([2H])(C([2H])([2H])[2H])C([2H])([2H])[2H])[nH]c5c4)cc2O3)[nH]1 [Compound 147],< 1
13,C=CC[C@H](NC(=O)OC)C(=O)N1CCC[C@H]1c1ncc(-c2ccc3c(c2)C(C)(C)c2ccc(-c4ccc5nc([C@@H]6CCCN6C(=O)[C@H](CC=C)NC(=O)OC)[nH]c5c4)cc2O3)[nH]1 [Compound 148],< 1
14,COC(=O)N[C@H](C(=O)N1CCC[C@H]1c1ncc(-c2ccc3c(c2)C(C)(C)c2ccc(-c4ccc5nc([C@@H]6CCCN6C(=O)[C@@H](NC(=O)OC)C6CCOCC6)[nH]c5c4)cc2O3)[nH]1)C1CCOCC1 [Compound 149],< 1
15,C#CC[C@H](NC(=O)OC)C(=O)N1CCC[C@H]1c1ncc(-c2ccc3c(c2)C(C)(C)c2ccc(-c4ccc5nc([C@@H]6CCCN6C(=O)[C@H](CC#C)NC(=O)OC)[nH]c5c4)cc2O3)[nH]1 [Compound 150],< 1
16,COC(=O)N[C@H](C(=O)N1CCC[C@H]1c1ncc(-c2ccc3c(c2)Oc2nnc(-c4cnc([C@@H]5CCCN5C(=O)[C@@H](NC(=O)OC)C(C)C)[nH]4)cc2O3)[nH]1)C(C)C [Compound 151],1 to 9.9
17,COC(=O)N[C@H](C(=O)N1CCC[C@H]1c1ncc(-c2ccc3nc4cc(-c5cnc([C@@H]6CCCN6C(=O)[C@@H](NC(=O)OC)C(C)C)[nH]5)ccc4nc3c2)[nH]1)C(C)C [Example 1],< 1
18,COC(=O)N[C@@H](C(=O)N1CCC[C@H]1c1ncc(-c2ccc3nc4cc(-c5cnc([C@@H]6CCCN6C(=O)[C@H](NC(=O)OC)c6ccccc6)[nH]5)ccc4nc3c2)[nH]1)c1ccccc1 [Example 2],< 1

# From patent US8999967B2, “Tricyclic fused ring inhibitors of hepatitis C” (Presidio Pharmaceuticals, Inc., priority 2010, dated 2015)
